The record followed here is US20050119275A1, “Salt and crystal forms of (5-chloro-2-{2-[4-(4-fluoro-benzyl)-(2R,5S)-2,5-dimethyl-piperazin-1-yl]-2-oxo-ethoxy}-phenyl)-methanesulfonic acid” (Pfizer Inc., priority 2003, published 2005).

The target of experiment [1] is T1, CCR1 (Homo sapiens, UniProt P32246).
T1 sequence (P32246 1-355): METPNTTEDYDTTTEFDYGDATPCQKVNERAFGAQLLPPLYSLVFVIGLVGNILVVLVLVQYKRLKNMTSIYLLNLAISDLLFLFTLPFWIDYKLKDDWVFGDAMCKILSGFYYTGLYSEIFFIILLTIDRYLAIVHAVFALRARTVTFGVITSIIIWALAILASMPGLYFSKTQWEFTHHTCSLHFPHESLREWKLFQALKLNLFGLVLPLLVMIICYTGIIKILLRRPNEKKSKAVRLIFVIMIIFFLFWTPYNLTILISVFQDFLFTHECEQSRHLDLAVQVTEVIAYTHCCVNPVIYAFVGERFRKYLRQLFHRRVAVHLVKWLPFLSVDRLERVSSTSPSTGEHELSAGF
In words: Chemotaxis assay (Boyden chamber, MIP-1α induced migration). In kind it is cell-based. Further details: THP-1 cells (ATCC TIB-202), primary human monocytes, or primary lymphocytes, isolated by standard techniques can then be added to the upper chambers; endogenous in cells; host or cells: THP-1 cells (ATCC TIB-202), primary human monocytes or primary lymphocytes. Conditions: statement in words. The text has this:
The activity of the compounds of the invention can be assessed according to procedures know to those of ordinary skill in the art. Examples of recognized methods for determining CCR1 induced migration can be found in Coligan, J. E., Kruisbeek, A. M., Margulies, D. H., Shevach, E. M., Strober, W. editors: Current Protocols In Immunology, 6.12.1-6.12.3. (John Wiley and Sons, NY, 1991). One specific example of how to determine the activity of a compound for inhibiting migration is described in detail below.
The ability of compounds to inhibit the chemotaxis to various chemokines can be evaluated using standard 48 or 96 well Boyden Chambers with a 5 micron polycarbonate filter. […] The amount of agonist chosen is that determined to give the maximal amount of chemotaxis in this system (e.g., 1 nM for MIP-1α should be adequate). […]
After a suitable incubation period at 37 degrees centigrade (e.g. 3.5 hours for THP-1 cells, 90 minutes for primary monocytes), the chamber is removed, the cells in the upper chamber aspirated, the upper part of the filter wiped and the number of cells migrating can be determined according to the following method.
For THP-1 cells, the chamber (a 96 well variety manufactured by Neuroprobe) can be centrifuged to push cells off the lower chamber and the number of cells can be quantitated against a standard curve by a color change of the dye fluorocein diacetate. […]

Experiment [2] addresses T1, CCR1. Kind of experiment: Inhibition of MIP-1α (CCL3) binding to its receptor CCR1. The settings on record: CCR1 found on inflammatory and immunomodulatory cells; statement in words.

`C[C@@H]1CN(Cc2ccc(F)cc2)[C@@H](C)CN1C(=O)COc1ccc(Cl)cc1CS(=O)(=O)O` [(5-Chloro-2-{2-[4-(4-fluoro-benzyl)-(2R,5S)-2,5-dimethyl-piperazin-1-yl]-2-oxo-ethoxy}-phenyl)-methanesulfonic acid]: on CCR1 [1], the “inhibition of MIP-1α (and related chemokines) induced chemotaxis of THP-1 cells and human leukocytes” value is reported as “inhibits”. Further, the “inhibition of MIP-1α (CCL3) binding to its receptor CCR1” value on CCR1 [2] is listed as “potent inhibitor”.
